# Assay results taken from patent publication US8735424B2 (Novartis AG, priority 2008, dated 2014).
# Experiments:
# PIM3 = PIM3 (Homo sapiens, UniProt Q86V86); assay: Pim3 ATP depletion assay; type: biochemical; conditions: 40 μM ATP
# Procedure: The activity of PIM3 is measured using a luciferase-luciferin based ATP detection reagent to quantify ATP depletion resulting from kinase-catalyzed phosphoryl transfer to a peptide substrate. Compounds to be tested are dissolved in 100% DMSO and directly distributed into white 384-well plates at 0.5 μl per well. To start the reaction, 10 μl of 10 nM Pim3 kinase and 200 μM BAD peptide (RSRHSSYPAGT-OH) in assay buffer (50 mM HEPES pH 7.5, 5 mM MgCl2, 1 mM DTT, 0.05% BSA) is added into each well. After 15 minutes, 10 μl of 80 μM ATP in assay buffer is added. Final assay concentrations are 5 nM PIM1, 40 μM ATP, 100 μM BAD peptide and 2.5% DMSO. The reaction is performed until approximately 50% of the ATP is depleted, then stopped by the addition of 20 μl KinaseGlo Plus (Promega Corporation) solution. The stopped reaction is incubated for 10 minutes and the remaining ATP detected via luminescence on the Victor2 (Perkin Elmer).
# PIM1 = PIM1 (Homo sapiens, UniProt P11309); assay: Pim1 ATP depletion assay; type: biochemical; conditions: 20 μM ATP, 2.5 nM PIM1
# PIM1, sequence (P11309 whole entry): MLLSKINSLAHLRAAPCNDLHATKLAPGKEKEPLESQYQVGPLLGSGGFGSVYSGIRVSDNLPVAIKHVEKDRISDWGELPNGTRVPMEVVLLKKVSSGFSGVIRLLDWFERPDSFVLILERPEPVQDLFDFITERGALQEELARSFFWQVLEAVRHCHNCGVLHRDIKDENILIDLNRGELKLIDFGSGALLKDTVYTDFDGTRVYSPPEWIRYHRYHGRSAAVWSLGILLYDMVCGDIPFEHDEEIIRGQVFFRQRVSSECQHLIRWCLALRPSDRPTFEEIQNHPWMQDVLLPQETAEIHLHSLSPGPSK
# Procedure: The activity of PIM1 is measured using a luciferase-luciferin based ATP detection reagent to quantify ATP depletion resulting from kinase-catalyzed phosphoryl transfer to a peptide substrate. Compounds to be tested are dissolved in 100% DMSO and directly distributed into white 384-well plates at 0.5 μl per well. To start the reaction, 10 μl of 5 nM Pim1 kinase and 80 μM BAD peptide (RSRHSSYPAGT-OH) in assay buffer (50 mM HEPES pH 7.5, 5 mM MgCl2, 1 mM DTT, 0.05% BSA) is added into each well. After 15 minutes, 10 μl of 40 μM ATP in assay buffer is added. Final assay concentrations are 2.5 nM PIM1, 20 μM ATP, 40 μM BAD peptide and 2.5% DMSO. The reaction is performed until approximately 50% of the ATP is depleted, then stopped with the addition of 20 μl KinaseGlo Plus (Promega Corporation) solution. The stopped reaction is incubated for 10 minutes and the remaining ATP detected via luminescence on the Victor2 (Perkin Elmer). […] IC50, the half maximal inhibitory concentration, represents the concentration of a test compound that is required for 50% inhibition of its target in vitro.
# KMS11 cells = assay: Cell proliferation assay (CellTiter-Glo); type: cell-based; conditions: KMS-11, 72 h; KMS11 human myeloma cell line, 3 days
# Procedure: KMS11 (human myeloma cell line), were cultured in IMDM supplemented with 10% FBS, sodium pyruvate and antibiotics. Cells were plated in the same medium at a density of 2000 cells per well into 96 well tissue culture plates, with outside wells vacant, on the day of assay. MM1.s (human myeloma cell line), were cultured in RPMI1640 supplemented with 10% FBS, sodium pyruvate and antibiotics. Cells were plated in the same medium at a density of 5000 cells per well into 96 well tissue culture plates, with outside wells vacant, on the day of assay.
# Test compounds supplied in DMSO were diluted into DMSO at 500 times the desired final concentrations before dilution into culture media to 2 times final concentrations. Equal volumes of 2× compounds were added to the cells in 96 well plates and incubated at 37° C. for 3 days.
# After 3 days plates were equilibrated to room temperature and equal volume of CellTiter-Glow Reagent (Promega) was added to the culture wells. The plates were agitated briefly and luminescent signal was measured with luminometer. The percent inhibition of the signal seen in cells treated with DMSO alone vs. cells treated with control compound was calculated and used to determine EC50 values (i.e., the concentration of a test compound that is required to obtain 50% of the maximum effect in the cells) for tested compounds, as shown in Example 41.
# PIM2 = PIM2 (Homo sapiens, UniProt Q9P1W9); assay: Pim2 ATP depletion assay; type: biochemical; conditions: 4 μM ATP, 5 nM PIM2
# PIM2, sequence (Q9P1W9 whole entry): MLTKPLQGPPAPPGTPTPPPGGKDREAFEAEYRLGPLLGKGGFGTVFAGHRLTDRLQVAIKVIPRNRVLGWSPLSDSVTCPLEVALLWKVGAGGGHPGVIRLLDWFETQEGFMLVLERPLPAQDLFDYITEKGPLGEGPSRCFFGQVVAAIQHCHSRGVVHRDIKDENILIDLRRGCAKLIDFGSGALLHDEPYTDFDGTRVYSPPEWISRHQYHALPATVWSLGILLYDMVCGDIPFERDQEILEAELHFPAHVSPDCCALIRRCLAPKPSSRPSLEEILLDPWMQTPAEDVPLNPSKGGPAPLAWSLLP
# Procedure: The activity of PIM2 is measured using a luciferase-luciferin based ATP detection reagent to quantify ATP depletion resulting from kinase-catalyzed phosphoryl transfer to a peptide substrate. Compounds to be tested are dissolved in 100% DMSO and directly distributed into white 384-well plates at 0.5 μl per well. To start the reaction, 10 μl of 10 nM Pim2 kinase and 20 μM BAD peptide (RSRHSSYPAGT-OH) in assay buffer (50 mM HEPES pH 7.5, 5 mM MgCl2, 1 mM DTT, 0.05% BSA) is added into each well. After 15 minutes, 10 μl of 8 μM ATP in assay buffer is added. Final assay concentrations are 5 nM PIM2, 4 μM ATP, 10 μM BAD peptide and 2.5% DMSO. The reaction is performed until approximately 50% of the ATP is depleted, then stopped with the addition of 20 μl KinaseGlo Plus (Promega Corporation) solution. The stopped reaction is incubated for 10 minutes and the remaining ATP detected via luminescence on the Victor2 (Perkin Elmer).
SMILES,IC50 (PIM3),IC50 (PIM1),IC50 (PIM2),EC50 (KMS11 cells)
"Nc1cnc(-c2ccccc2F)nc1-c1cc2c(N3CCC[C@H](N)C3)ccnc2cn1 [Example 6, (S)-4-(4-(3-aminopiperidin-1-yl)-1,7-naphthyridin-6-yl)-2-(2-fluorophenyl)pyrimidin-5-amine]",3 nM,4 nM,59 nM,1800 nM
"Nc1ccc(-c2c(F)cccc2F)nc1-c1cc2c(N3CCC[C@@H](N)C3)ccnc2cn1 [Example 7, (R)-2-(4-(3-aminopiperidin-1-yl)-1,7-naphthyridin-6-yl)-6-(2,6-difluorophenyl)pyridin-3-amine]",7 nM,5 nM,24 nM,2800 nM
"CC(C)NC(=O)c1ccc(F)c(-c2ccc(N)c(-c3cc4c(N5CCC[C@@H](N)C5)ccnc4cn3)n2)c1 [Example 8, (R)-3-(5-amino-6-(4-(3-aminopiperidin-1-yl)-1,7-naphthyridin-6-yl)pyridin-2-yl)-4-fluoro-N-isopropylbenzamide]",21 nM,16 nM,81 nM,4500 nM
"Nc1ccc(-c2c(F)cccc2F)nc1-c1cc2c(N3CCC[C@H](N)C3)ccnc2cn1 [Example 9, (S)-2-(4-(3-aminopiperidin-1-yl)-1,7-naphthyridin-6-yl)-6-(2,6-difluorophenyl)pyridin-3-amine]",6 nM,1 nM,40 nM,3700 nM
"CC(C)NC(=O)c1ccc(F)c(-c2ccc(N)c(-c3cc4c(N5CCC[C@H](N)C5)ccnc4cn3)n2)c1 [Example 10, (S)-3-(5-amino-6-(4-(3-aminopiperidin-1-yl)-1,7-naphthyridin-6-yl)pyridin-2-yl)-4-fluoro-N-isopropylbenzamide]",13 nM,3 nM,48 nM,3900 nM
"Nc1ccc(-c2ccccc2F)nc1-c1cc2c(N3CCC[C@H](N)C3)ccnc2cn1 [Example 11, (S)-2-(4-(3-aminopiperidin-1-yl)-1,7-naphthyridin-6-yl)-6-(2-fluorophenyl)pyridin-3-amine]",3 nM,2 nM,59 nM,5200 nM
"Nc1ccc(-c2cc(C(=O)Nc3ccccc3)ccc2F)nc1-c1cc2c(N3CCC[C@H](N)C3)ccnc2cn1 [Example 12, (S)-3-(5-amino-6-(4-(3-aminopiperidin-1-yl)-1,7-naphthyridin-6-yl)pyridin-2-yl)-4-fluoro-N-phenylbenzamide]",21 nM,9 nM,98 nM,4100 nM
"Nc1ccc(-c2cc(C(=O)NC3CCCCC3)ccc2F)nc1-c1cc2c(N3CCC[C@H](N)C3)ccnc2cn1 [Example 15, (S)-3-(5-amino-6-(4-(3-aminopiperidin-1-yl)-1,7-naphthyridin-6-yl)pyridin-2-yl)-N-cyclohexyl-4-fluorobenzamide]",22 nM,9 nM,74 nM,3100 nM
"CN(C)C(=O)c1ccc(F)c(-c2ccc(N)c(-c3cc4c(N5CCC[C@H](N)C5)ccnc4cn3)n2)c1 [Example 16, (S)-3-(5-amino-6-(4-(3-aminopiperidin-1-yl)-1,7-naphthyridin-6-yl)pyridin-2-yl)-4-fluoro-N,N-dimethylbenzamide]",41 nM,10 nM,120 nM,4000 nM
"Nc1ccc(-c2ccc(S(N)(=O)=O)cc2)nc1-c1cc2c(N3CCC[C@H](N)C3)ccnc2cn1 [Example 23, (S)-4-(5-amino-6-(4-(3-aminopiperidin-1-yl)-1,7-naphthyridin-6-yl)pyridin-2-yl)benzenesulfonamide]",7 nM,2 nM,34 nM,7800 nM
"CS(=O)(=O)c1ccc(-c2ccc(N)c(-c3cc4c(N5CCC[C@H](N)C5)ccnc4cn3)n2)cc1 [Example 24, (S)-2-(4-(3-aminopiperidin-1-yl)-1,7-naphthyridin-6-yl)-6-(4-(methylsulfonyl)phenyl)pyridin-3-amine]",7 nM,2 nM,34 nM,1200 nM
"N[C@@H]1CN(c2ccnc3ccc(-c4cccc(-c5c(F)cccc5F)n4)cc23)CC[C@H]1O [Example 35, (3R,4R)-3-amino-1-(6-(6-(2,6-difluorophenyl)pyridin-2-yl)quinolin-4-yl)piperidin-4-ol]",21 nM,19 nM,373 nM,–
"N[C@@H]1CN(c2ccnc3ccc(-c4cccc(-c5nccs5)n4)cc23)CC[C@H]1O [Example 36, (3R,4R)-3-amino-1-(6-(6-(thiazol-2-yl)pyridin-2-yl)quinolin-4-yl)piperidin-4-ol]",9 nM,9 nM,75 nM,–

# The next lines start with results.
IC50 (PIM3),IC50 (PIM1),IC50 (PIM2),SMILES,EC50 (KMS11 cells)
7 nM,2 nM,40 nM,"Nc1ccc(-c2nccs2)nc1-c1cc2c(N3CCC[C@H](N)C3)c(F)cnc2cn1 [Example 1, (S)-2-(4-(3-aminopiperidin-1-yl)-3-fluoro-1,7-naphthyridin-6-yl)-6-(thiazol-2-yl)pyridin-3-amine]",870 nM
4 nM,1 nM,9 nM,"Nc1ccc(-c2nccs2)nc1-c1cc2c(N3CCC[C@H](N)C3)ccnc2cn1 [Example 5, (S)-2-(4-(3-aminopiperidin-1-yl)-1,7-naphthyridin-6-yl)-6-(thiazol-2-yl)pyridin-3-amine]",840 nM
4 nM,3 nM,54 nM,"Nc1ccc(-c2cccs2)nc1-c1cc2c(N3CCC[C@H](N)C3)ccnc2cn1 [Example 13, (S)-2-(4-(3-aminopiperidin-1-yl)-1,7-naphthyridin-6-yl)-6-(thiophen-2-yl)pyridin-3-amine]",4700 nM
4 nM,2 nM,71 nM,"Nc1ccc(-c2cccc(F)c2F)nc1-c1cc2c(N3CCC[C@H](N)C3)ccnc2cn1 [Example 18, (S)-2-(4-(3-aminopiperidin-1-yl)-1,7-naphthyridin-6-yl)-6-(2,3-difluorophenyl)pyridin-3-amine]",4900 nM
7 nM,6 nM,102 nM,"Nc1ccc(-c2ccc(F)cc2)nc1-c1cc2c(N3CCC[C@H](N)C3)ccnc2cn1 [Example 19, (S)-2-(4-(3-aminopiperidin-1-yl)-1,7-naphthyridin-6-yl)-6-(4-fluorophenyl)pyridin-3-amine]",4000 nM
4 nM,3 nM,62 nM,"Nc1ccc(-c2ccccc2)nc1-c1cc2c(N3CCC[C@H](N)C3)ccnc2cn1 [Example 20, (S)-2-(4-(3-aminopiperidin-1-yl)-1,7-naphthyridin-6-yl)-6-phenylpyridin-3-amine]",4200 nM
